molecular target: T1, human Cav2.2α (α1B) subunit, along with the human β3 and α2δ1 auxiliary subunits (Homo sapiens, UniProt Q00975); test: hCav2.2 assay (IonWorks planar array electrophysiology); type: cell-based; details: HEK293 cells; inhibition of current elicited by the 1st depolarising pulse by 50%; read-out: mean pIC50 value (tonic pIC50) (converted)
T1 construct: expressed in transfected cells; plasmids pCIN5-hCav2.2, pCIH-hCav β3, pCIP-α2δ1
Method: Compounds of the invention may be tested for in vitro biological activity in the hCav2.2 assay in accordance with the following studies:
Stable cell lines expressing the human Cav2.2α (α1B) subunit, along with the human β3 and α2δ1 auxiliary subunits were created following sequential transfection and selection of human embryonic kidney (HEK293) cells. HEK293 cells were cultured in Dulbecco's modified Eagles media/F12 media (Invitrogen, Cat #041-95750V) containing 10% fetal bovine serum, with added L-glutamine (2 mM; Invitrogen, Cat #25030-024) and non-essential amino acids (5%; Invitrogen, Cat #11140-035). Initially HEK293 cells were transfected with two plasmid vectors for expression of the hCav2.2α subunit (pCIN5-hCav2.2 which carries a neomycin resistance marker) and the hCav β3 subunit (pCIH-hCav β3 which carries a hygromycin resistance marker). Clonal cell lines were isolated following selection in media supplemented with 0.4 mg ml^−1 Geneticin G418 (Invitrogen, Cat #10131-027) and 0.1 mg ml^−1 hygromycin (Invitrogen, Cat #10687-010). These clonal cell lines were assessed for Cav2.2α/β3-mediated current expression using the IonWorks planar array electrophysiology technology (described below). A clonal line was identified that gave a reasonable level of functional Cav2.2α/β3 current expression. This cell line was transfected with a plasmid vector for expression of the human α2δ1 subunit (pCIP-α2δ1 which carries a puromycin resistance marker) and clonal cell lines isolated following selection in media containing 0.62 μg ml^−1 puromycin (Sigma, Cat # P-7255), in addition to 0.4 mg ml^−1 Geneticin G418 and 0.1 mg ml^−1 hygromycin. Several cell lines were identified that gave robust levels of Cav2.2α/β3/α2δ1-mediated current expression and one of these was selected for compound profiling. Expression of all three subunits within this cell line was continuously maintained by the inclusion of G418 (0.4 mg ml^−1), hygromycin (0.1 mg ml^−1) and puromycin (0.62 μg ml^−1). Cells were maintained at 37° C. in a humidified environment containing 5% CO2 in air. Cells were liberated from the T175 culture flasks for passage and harvesting using TrpLE (Invitrogen, Cat #12604-013).
Cells were grown to 30-60% confluence in T175 flasks and maintained at 30° C. for 24 hrs prior to recording. Cells were lifted by removing the growth media, washing with Ca^2+free PBS (Invitrogen, Cat #14190-094) and incubating with 3 ml of warmed (37° C.) TrpLE (Invitrogen, Cat #12604-013) for 6 minutes. Lifted cells were suspended in 10 ml of extracellular buffer. Cell suspension was then placed into a 15 ml tube and centrifuged for 2 minutes at 700 rpm. After centrifugation, the supernatant was removed and the cell pellet was resuspended in 4.5 ml of extracellular solution.
Currents were recorded at room temperature (21-23° C.) using the IonWorks planar array electrophysiology technology (Molecular Devices Corp.). Stimulation protocols and data acquisition were carried out using a microcomputer (Dell Pentium 4). In order to determine planar electrode hole resistances (Rp), a 10 mV, 160 ms potential difference was applied across each hole. These measurements were performed before cell addition. After cell addition a seal test was performed prior to antibiotic (amphotericin) circulation to achieve intracellular access. Leak subtraction was conducted in all experiments by applying a 160 ms hyperpolarizing (10 mV) prepulse 200 ms before the test pulses to measure leak conductance. Test pulses stepping from the holding potential (VH) of −90 mV to +10 mV were applied for 20 ms and repeated 10 times at a frequency of 10 Hz. In all experiments, the test pulse protocol was performed in the absence (pre-read) and presence (post-read) of a compound. Pre- and post-reads were separated by a compound addition followed by a 3-3.5 min incubation.
The intracellular solution contained the following (in mM): K-gluconate 120, KCl 20 mM, MgCl2 5, EGTA 5, HEPES 10, adjusted to pH 7.3. […]

T1 sequence (Q00975 whole entry): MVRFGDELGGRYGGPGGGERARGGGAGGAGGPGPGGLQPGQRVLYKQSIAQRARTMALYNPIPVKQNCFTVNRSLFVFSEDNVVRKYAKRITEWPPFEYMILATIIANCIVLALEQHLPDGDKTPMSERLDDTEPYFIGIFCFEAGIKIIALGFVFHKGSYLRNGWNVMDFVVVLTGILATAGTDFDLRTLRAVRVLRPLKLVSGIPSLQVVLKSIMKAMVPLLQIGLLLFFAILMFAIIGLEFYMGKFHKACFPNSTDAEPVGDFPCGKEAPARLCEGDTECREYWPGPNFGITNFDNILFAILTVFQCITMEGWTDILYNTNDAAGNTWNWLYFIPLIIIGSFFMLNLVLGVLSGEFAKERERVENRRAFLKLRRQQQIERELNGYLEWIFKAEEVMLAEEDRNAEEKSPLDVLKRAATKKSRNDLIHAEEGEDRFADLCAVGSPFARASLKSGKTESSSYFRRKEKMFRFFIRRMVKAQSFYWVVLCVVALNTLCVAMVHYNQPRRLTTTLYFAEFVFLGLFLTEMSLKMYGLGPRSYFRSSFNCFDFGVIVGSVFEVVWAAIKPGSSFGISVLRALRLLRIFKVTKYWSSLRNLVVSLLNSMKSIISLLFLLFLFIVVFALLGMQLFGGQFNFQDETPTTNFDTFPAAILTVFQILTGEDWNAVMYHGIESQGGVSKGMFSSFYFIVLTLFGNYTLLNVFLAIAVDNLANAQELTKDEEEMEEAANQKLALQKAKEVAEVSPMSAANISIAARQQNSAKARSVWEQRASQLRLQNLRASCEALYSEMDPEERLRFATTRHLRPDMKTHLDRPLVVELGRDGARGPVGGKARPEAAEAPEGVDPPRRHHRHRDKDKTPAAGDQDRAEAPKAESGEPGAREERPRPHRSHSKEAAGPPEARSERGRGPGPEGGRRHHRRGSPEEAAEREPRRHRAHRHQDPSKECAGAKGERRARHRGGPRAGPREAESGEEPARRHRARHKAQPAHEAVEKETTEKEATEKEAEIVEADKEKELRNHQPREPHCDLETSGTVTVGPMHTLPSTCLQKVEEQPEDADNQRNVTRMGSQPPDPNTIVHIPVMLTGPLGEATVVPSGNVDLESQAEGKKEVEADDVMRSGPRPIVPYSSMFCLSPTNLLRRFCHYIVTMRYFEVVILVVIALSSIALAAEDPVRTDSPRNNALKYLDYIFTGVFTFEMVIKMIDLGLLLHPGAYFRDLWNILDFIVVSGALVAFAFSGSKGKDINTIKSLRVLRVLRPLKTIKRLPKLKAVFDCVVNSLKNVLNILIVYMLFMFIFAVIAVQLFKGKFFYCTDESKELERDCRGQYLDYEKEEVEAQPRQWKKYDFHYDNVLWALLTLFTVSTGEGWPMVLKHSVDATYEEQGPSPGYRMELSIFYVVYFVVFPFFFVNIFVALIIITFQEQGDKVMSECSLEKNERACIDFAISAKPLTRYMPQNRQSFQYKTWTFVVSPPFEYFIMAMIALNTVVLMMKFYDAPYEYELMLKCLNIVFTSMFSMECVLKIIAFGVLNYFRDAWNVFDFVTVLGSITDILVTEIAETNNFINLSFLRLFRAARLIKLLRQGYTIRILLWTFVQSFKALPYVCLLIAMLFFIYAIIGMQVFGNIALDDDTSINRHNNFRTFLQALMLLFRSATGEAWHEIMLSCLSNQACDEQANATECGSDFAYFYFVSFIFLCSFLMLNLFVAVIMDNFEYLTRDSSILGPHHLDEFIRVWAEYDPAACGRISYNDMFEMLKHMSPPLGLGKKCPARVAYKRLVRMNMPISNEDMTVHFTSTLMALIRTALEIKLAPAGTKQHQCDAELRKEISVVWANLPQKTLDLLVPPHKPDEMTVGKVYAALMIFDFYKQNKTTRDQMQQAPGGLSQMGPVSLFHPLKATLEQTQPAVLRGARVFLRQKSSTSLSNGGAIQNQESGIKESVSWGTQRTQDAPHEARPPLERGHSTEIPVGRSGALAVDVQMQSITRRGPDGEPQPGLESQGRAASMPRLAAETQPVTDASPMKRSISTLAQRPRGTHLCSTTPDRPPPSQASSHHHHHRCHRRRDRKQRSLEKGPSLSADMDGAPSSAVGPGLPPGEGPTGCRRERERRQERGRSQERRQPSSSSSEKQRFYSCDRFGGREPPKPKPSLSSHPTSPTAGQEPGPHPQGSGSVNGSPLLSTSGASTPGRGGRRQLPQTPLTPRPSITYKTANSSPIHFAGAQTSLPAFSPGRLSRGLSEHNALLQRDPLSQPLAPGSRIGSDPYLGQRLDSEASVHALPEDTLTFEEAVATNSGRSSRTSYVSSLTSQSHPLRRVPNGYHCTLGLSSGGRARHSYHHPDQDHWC
T1 sequence (P54284 whole entry partner): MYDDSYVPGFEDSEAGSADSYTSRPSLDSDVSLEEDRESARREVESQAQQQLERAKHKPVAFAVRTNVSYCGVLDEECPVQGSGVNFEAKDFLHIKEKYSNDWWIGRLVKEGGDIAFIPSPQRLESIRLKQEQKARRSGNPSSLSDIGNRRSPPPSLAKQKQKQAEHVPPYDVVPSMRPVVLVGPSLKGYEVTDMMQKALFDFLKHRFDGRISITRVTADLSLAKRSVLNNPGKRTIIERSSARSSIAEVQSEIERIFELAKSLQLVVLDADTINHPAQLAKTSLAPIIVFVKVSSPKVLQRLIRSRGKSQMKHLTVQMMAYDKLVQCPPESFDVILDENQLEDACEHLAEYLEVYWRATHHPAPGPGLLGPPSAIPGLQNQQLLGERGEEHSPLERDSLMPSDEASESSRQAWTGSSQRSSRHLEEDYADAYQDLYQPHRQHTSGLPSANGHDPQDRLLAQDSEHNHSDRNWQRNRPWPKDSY
T1 sequence (P54289 25-946 partner limits assumed): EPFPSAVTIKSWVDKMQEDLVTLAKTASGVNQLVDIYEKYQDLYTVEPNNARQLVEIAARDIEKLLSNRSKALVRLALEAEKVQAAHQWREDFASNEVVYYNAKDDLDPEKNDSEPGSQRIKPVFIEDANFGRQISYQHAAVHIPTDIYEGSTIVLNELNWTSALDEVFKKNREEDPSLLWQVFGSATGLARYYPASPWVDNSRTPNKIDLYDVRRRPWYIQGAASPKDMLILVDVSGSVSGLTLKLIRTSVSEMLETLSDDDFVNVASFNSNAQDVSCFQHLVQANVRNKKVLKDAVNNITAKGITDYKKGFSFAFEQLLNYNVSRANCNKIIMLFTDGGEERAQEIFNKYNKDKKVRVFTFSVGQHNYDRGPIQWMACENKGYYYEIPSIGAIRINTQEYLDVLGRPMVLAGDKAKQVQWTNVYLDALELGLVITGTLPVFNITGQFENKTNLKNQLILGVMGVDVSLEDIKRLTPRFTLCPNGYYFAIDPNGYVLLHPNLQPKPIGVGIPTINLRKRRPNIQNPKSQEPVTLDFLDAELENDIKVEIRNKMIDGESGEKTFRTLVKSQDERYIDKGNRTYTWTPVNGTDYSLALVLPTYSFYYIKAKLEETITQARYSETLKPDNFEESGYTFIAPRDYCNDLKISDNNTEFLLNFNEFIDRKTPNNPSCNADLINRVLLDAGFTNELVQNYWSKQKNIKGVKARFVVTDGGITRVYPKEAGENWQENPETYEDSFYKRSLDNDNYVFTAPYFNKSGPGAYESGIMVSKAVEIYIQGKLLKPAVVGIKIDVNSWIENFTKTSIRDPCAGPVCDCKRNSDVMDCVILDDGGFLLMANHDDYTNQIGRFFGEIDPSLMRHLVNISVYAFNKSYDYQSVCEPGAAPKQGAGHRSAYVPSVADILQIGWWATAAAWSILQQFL
T1 sequence (P54289 947-1103 partner limits assumed): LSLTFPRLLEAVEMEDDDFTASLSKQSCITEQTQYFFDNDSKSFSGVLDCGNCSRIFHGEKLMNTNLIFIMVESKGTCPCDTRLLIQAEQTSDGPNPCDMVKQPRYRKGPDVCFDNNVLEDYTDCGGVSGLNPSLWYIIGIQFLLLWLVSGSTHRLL

IC50 [µM] | SMILES
≥ 31.6 | Cc1ccc(S(=O)(=O)N2CCCC3(CCNC3=O)C2)c(C)c1 (stereo not drawn) [Compound 7, 7-[(2,4-Dimethylphenyl)sulfonyl]-2,7-diazaspiro[4.5]decan-1-one]
≥ 31.6 | O=C1NCCCC12CCCN(S(=O)(=O)c1ccc(C(F)(F)F)cc1)C2 (stereo not drawn) [Compound 10, 8-{[4-(Trifluoromethyl)phenyl]sulfonyl}-2,8-diazaspiro[5.5]undecan-1-one]
≥ 31.6 | O=C1NCCCC12CCCN(S(=O)(=O)c1cccc(OC(F)F)c1)C2 (stereo not drawn) [Compound 31, 8-({3-[(Difluoromethyl)oxy]phenyl}sulfonyl)-2,8-diazaspiro[5.5]undecan-1-one]
≥ 31.6 | O=C1NCCC12CCCN(S(=O)(=O)c1ccc(C(F)(F)F)cc1Br)C2 (stereo not drawn) [Compound 21, 7-{[2-Bromo-4-(trifluoromethyl)phenyl]sulfonyl}-2,7-diazaspiro[4.5]decan-1-one]
≥ 31.6 | O=C1NCCC12CCCN(S(=O)(=O)c1cccc(OC(F)F)c1)C2 (stereo not drawn) [Compound 33, 7-({3-[(Difluoromethyl)oxy]phenyl}sulfonyl)-2,7-diazaspiro[4.5]decan-1-one]
≥ 31.6 | CCOc1ccc(S(=O)(=O)N2CCCC3(CCCN(C)C3=O)C2)cc1 (stereo not drawn) [Compound 34, 8-{[4-(Ethyloxy)phenyl]sulfonyl}-2-methyl-2,8-diazaspiro[5.5]undecan-1-one]
≥ 31.6 | CN1CCC2(CCCN(S(=O)(=O)c3ccc(C(F)(F)F)cc3)C2)C1=O (stereo not drawn) [Compound 2, 2-Methyl-7-{[4-(trifluoromethyl)phenyl]sulfonyl}-2,7-diazaspiro[4.5]decan-1-one]
≥ 31.6 | O=C1NCCCC12CCCN(S(=O)(=O)c1cc(C(F)(F)F)cc(C(F)(F)F)c1)C2 (stereo not drawn) [Compound 27, 8-{[3,5-Bis(trifluoromethyl)phenyl]sulfonyl}-2,8-diazaspiro[5.5]undecan-1-one]
≥ 31.6 | O=C1NCCC12CCCN(S(=O)(=O)c1ccc(OC(F)(F)F)cc1)C2 (stereo not drawn) [Compound 6, 7-({4-[(Trifluoromethyl)oxy]phenyl}sulfonyl)-2,7-diazaspiro[4.5]decan-1-one]
≥ 31.6 | O=C1OCCC12CCCN(S(=O)(=O)c1ccc(C(F)(F)F)cc1)C2 (stereo not drawn) [Compound 28, 7-{[4-(Trifluoromethyl)phenyl]sulfonyl}-2-oxa-7-azaspiro[4.5]decan-1-one]
≥ 31.6 | Cc1ccc(S(=O)(=O)N2CCCC3(CCCNC3=O)C2)cc1 (stereo not drawn) [Compound 35, 8-[(4-Methylphenyl)sulfonyl]-2,8-diazaspiro[5.5]undecan-1-one]
≥ 31.6 | O=C1NCCC12CCCN(S(=O)(=O)c1cc(C(F)(F)F)ccc1C(F)(F)F)C2 (stereo not drawn) [Compound 16, 7-{[2,5-Bis(trifluoromethyl)phenyl]sulfonyl}-2,7-diazaspiro[4.5]decan-1-one]
≥ 31.6 | Cc1ccc(S(=O)(=O)N2CCCC3(CCNC3=O)C2)c(C(F)(F)F)c1 (stereo not drawn) [Compound 30, 7-{[4-Methyl-2-(trifluoromethyl)phenyl]sulfonyl}-2,7-diazaspiro[4.5]decan-1-one]
≥ 31.6 | O=C1NCCC12CCCN(S(=O)(=O)c1cc(Cl)cc(Cl)c1)C2 (stereo not drawn) [Compound 19, 7-[(3,5-Dichlorophenyl)sulfonyl]-2,7-diazaspiro[4.5]decan-1-one]
≥ 31.6 | O=C1NCCC12CCCN(S(=O)(=O)c1cccc(OC(F)(F)F)c1)C2 (stereo not drawn) [Compound 15, 7-({3-[(Trifluoromethyl)oxy]phenyl}sulfonyl)-2,7-diazaspiro[4.5]decan-1-one]
≥ 31.6 | COc1ccc(C(F)(F)F)cc1S(=O)(=O)N1CCCC2(CCNC2=O)C1 (stereo not drawn) [Compound 32, 7-{[2-(Methyloxy)-5-(trifluoromethyl)phenyl]sulfonyl}-2,7-diazaspiro[4.5]decan-1-one]
≥ 31.6 | O=C1NCCCC12CCCN(S(=O)(=O)c1cc(F)cc(C(F)(F)F)c1)C2 (stereo not drawn) [Compound 17, 8-{[3-Fluoro-5-(trifluoromethyl)phenyl]sulfonyl}-2,8-diazaspiro[5.5]undecan-1-one]
≥ 31.6 | O=C1OCCC12CCCN(S(=O)(=O)c1ccc(OC(F)(F)F)cc1)C2 (stereo not drawn) [Compound 29, 7-({4-[(Trifluoromethyl)oxy]phenyl}sulfonyl)-2-oxa-7-azaspiro[4.5]decan-1-one]
≥ 31.6 | O=C1NCCCC12CCCN(S(=O)(=O)c1cccc(C(F)(F)F)c1)C2 (stereo not drawn) [Compound 12, 8-{[3-(Trifluoromethyl)phenyl]sulfonyl}-2,8-diazaspiro[5.5]undecan-1-one]
≥ 31.6 | O=C1NCCC12CCCN(S(=O)(=O)c1cc(F)cc(C(F)(F)F)c1)C2 (stereo not drawn) [Compound 14, 7-{[3-Fluoro-5-(trifluoromethyl)phenyl]sulfonyl}-2,7-diazaspiro[4.5]decan-1-one]
≥ 31.6 | Cc1ccc(S(=O)(=O)N2CCCC3(CCNC3=O)C2)c(OC(F)(F)F)c1 (stereo not drawn) [Compound 24, 7-({4-Methyl-2-[(trifluoromethyl)oxy]phenyl}sulfonyl)-2,7-diazaspiro[4.5]decan-1-one]
≥ 31.6 | O=C1NCCCC12CCCN(S(=O)(=O)c1cc(C(F)(F)F)ccc1C(F)(F)F)C2 (stereo not drawn) [Compound 18, 8-{[2,5-Bis(trifluoromethyl)phenyl]sulfonyl}-2,8-diazaspiro[5.5]undecan-1-one]
≥ 31.6 | Cc1ccc(S(=O)(=O)N2CCCC3(CCNC3=O)C2)cc1C(F)(F)F (stereo not drawn) [Compound 23, 7-{[4-Methyl-3-(trifluoromethyl)phenyl]sulfonyl}-2,7-diazaspiro[4.5]decan-1-one]
≥ 31.6 | Cc1ccc(C(F)(F)F)cc1S(=O)(=O)N1CCCC2(CCNC2=O)C1 (stereo not drawn) [Compound 26, 7-{[2-Methyl-5-(trifluoromethyl)phenyl]sulfonyl}-2,7-diazaspiro[4.5]decan-1-one]
≥ 31.6 | CN1CCCC2(CCCN(S(=O)(=O)c3ccc(C(F)(F)F)cc3)C2)C1=O (stereo not drawn) [Compound 5, 2-Methyl-8-{[4-(trifluoromethyl)phenyl]sulfonyl}-2,8-diazaspiro[5.5]undecan-1-one]
≥ 31.6 | Cc1cc(C(F)(F)F)cc(S(=O)(=O)N2CCCC3(CCNC3=O)C2)c1 (stereo not drawn) [Compound 25, 7-{[3-Methyl-5-(trifluoromethyl)phenyl]sulfonyl}-2,7-diazaspiro[4.5]decan-1-one]
≥ 31.6 | O=C1NCCC12CCCN(S(=O)(=O)c1cccc(C(F)(F)F)c1)C2 (stereo not drawn) [Compound 9, 7-{[3-(Trifluoromethyl)phenyl]sulfonyl}-2,7-diazaspiro[4.5]decan-1-one]
≥ 31.6 | O=C1NCCC12CCCN(S(=O)(=O)c1cc(C(F)(F)F)cc(C(F)(F)F)c1)C2 (stereo not drawn) [Compound 8, 7-{[3,5-Bis(trifluoromethyl)phenyl]sulfonyl}-2,7-diazaspiro[4.5]decan-1-one]
≥ 31.6 | O=C1NCCC12CCCN(S(=O)(=O)c1ccc(OC(F)(F)F)c(Cl)c1)C2 (stereo not drawn) [Compound 20, 7-({3-Chloro-4-[(trifluoromethyl)oxy]phenyl}sulfonyl)-2,7-diazaspiro[4.5]decan-1-one]
≥ 31.6 | O=C1NCCCC12CCCN(S(=O)(=O)c1ccc(OC(F)(F)F)cc1)C2 (stereo not drawn) [Compound 13, 8-({4-[(Trifluoromethyl)oxy]phenyl}sulfonyl)-2,8-diazaspiro[5.5]undecan-1-one]
